Measurements reported in patent US7074789B2, “Kinase inhibitors” (Amgen Inc., priority 1999, dated 2006).

Legend:
Assay type in all cases: biochemical
[1] = target: T1, AKT (Homo sapiens, UniProt Q9Y243); experiment: Kinase inhibition assay (33P transfer), AKT; settings: Table 2, kinase inhibition class; read-out: AKT3-1
T1 construct: Kinases are expressed as either kinase domains or full length constructs; made in house
How it was run: (§1)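 33P-ATP transfer to coated synthetic polymer substrates; acid wash (0.5% H3PO4), scintillant, liquid scintillation count. Enzymes: His- or GST-fusion kinases from E. coli or High Five insect cells.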

[2] = target: T2, Kdr (Homo sapiens, UniProt P35968); experiment: Kinase inhibition assay (33P transfer), Kdr; settings: Table 3; read-out: KDR-1
T2 construct: Kinases are expressed as either kinase domains or full length constructs; made in house
How it was run: as §1

[3] = target: T3, Zap-70 (Homo sapiens, UniProt P43403); experiment: Kinase inhibition assay (33P transfer), Zap-70; settings: Table 3; read-out: Zap-1
T3 construct: Kinases are expressed as either kinase domains or full length constructs; made in house
T3 sequence (P43403 1-619): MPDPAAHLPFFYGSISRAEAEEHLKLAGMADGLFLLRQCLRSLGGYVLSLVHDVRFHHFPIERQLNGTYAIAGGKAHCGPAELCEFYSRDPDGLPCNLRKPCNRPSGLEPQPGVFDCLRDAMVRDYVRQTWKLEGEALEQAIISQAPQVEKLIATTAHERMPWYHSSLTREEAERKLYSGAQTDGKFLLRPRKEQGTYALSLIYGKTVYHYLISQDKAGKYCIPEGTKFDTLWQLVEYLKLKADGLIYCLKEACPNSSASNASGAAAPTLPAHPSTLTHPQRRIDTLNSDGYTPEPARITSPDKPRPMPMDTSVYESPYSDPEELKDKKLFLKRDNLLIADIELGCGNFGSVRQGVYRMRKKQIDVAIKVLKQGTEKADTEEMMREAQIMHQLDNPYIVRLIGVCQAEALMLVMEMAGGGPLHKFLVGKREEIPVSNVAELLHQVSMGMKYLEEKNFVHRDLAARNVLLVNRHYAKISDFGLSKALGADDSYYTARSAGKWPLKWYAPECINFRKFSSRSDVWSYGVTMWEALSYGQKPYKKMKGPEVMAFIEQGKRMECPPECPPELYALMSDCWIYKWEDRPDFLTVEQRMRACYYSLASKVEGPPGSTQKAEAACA
How it was run: as §1

[4] = target: T4, EGFR (Homo sapiens, UniProt P00533); experiment: Kinase inhibition assay (33P transfer), EGFR; settings: Table 2, kinase inhibition class; read-out: EGFR-1
T4 construct: Kinases are expressed as either kinase domains or full length constructs; made in house
T4 sequence (P00533 25-1210, species assumed): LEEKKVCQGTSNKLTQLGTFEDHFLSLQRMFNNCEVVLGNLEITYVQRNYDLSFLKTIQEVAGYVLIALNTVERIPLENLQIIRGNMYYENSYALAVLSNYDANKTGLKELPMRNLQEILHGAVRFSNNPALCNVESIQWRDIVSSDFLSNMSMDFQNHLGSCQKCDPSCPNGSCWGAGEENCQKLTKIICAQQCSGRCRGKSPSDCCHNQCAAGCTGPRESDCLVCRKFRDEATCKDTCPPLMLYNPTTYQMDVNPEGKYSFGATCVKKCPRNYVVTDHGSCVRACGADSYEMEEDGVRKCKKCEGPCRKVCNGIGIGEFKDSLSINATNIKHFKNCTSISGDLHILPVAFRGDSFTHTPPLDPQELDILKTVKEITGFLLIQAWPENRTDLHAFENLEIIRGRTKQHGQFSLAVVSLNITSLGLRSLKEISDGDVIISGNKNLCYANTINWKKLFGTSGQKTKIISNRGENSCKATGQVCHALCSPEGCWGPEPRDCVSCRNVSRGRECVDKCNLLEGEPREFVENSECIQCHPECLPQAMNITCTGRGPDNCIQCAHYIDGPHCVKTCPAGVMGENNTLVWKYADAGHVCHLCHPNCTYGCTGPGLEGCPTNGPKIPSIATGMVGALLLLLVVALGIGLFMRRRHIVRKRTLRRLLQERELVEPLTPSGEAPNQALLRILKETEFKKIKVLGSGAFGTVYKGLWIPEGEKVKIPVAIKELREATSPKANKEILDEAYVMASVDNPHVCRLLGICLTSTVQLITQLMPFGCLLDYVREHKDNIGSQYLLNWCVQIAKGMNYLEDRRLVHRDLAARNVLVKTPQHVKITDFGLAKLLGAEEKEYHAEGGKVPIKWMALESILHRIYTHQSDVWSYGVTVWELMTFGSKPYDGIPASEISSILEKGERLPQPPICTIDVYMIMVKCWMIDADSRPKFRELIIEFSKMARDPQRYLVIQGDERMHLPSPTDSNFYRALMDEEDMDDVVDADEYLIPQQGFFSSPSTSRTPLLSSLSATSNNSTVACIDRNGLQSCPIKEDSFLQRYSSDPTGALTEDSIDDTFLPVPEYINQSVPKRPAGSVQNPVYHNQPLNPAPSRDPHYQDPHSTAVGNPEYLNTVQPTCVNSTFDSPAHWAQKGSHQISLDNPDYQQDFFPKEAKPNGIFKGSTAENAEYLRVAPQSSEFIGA
How it was run: (§2)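 Using immobilised substrate copolymers (poly(Glu,Tyr) 4:1; poly(Arg,Ser) 3:1) and [33P]ATP, purified fusion kinases were allowed to react; plates were then rinsed in 0.5% phosphoric acid and counted in a scintillation detector. Half-maximal inhibition of label transfer defines IC50.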

[5] = target: T5, Tek (Homo sapiens, UniProt Q02763); experiment: Kinase inhibition assay (33P transfer), Tek; settings: read-out: Tek-1
T5 construct: Kinases are expressed as either kinase domains or full length constructs; made in house
How it was run: as §2

[6] = target: T6, Lck (Homo sapiens, UniProt P06239); experiment: Kinase inhibition assay (33P transfer), Lck; settings: Table 3; read-out: Lck-1
T6 construct: Kinases are expressed as either kinase domains or full length constructs; made in house
T6 sequence (P06239 whole entry, species assumed, the tested form may be a part): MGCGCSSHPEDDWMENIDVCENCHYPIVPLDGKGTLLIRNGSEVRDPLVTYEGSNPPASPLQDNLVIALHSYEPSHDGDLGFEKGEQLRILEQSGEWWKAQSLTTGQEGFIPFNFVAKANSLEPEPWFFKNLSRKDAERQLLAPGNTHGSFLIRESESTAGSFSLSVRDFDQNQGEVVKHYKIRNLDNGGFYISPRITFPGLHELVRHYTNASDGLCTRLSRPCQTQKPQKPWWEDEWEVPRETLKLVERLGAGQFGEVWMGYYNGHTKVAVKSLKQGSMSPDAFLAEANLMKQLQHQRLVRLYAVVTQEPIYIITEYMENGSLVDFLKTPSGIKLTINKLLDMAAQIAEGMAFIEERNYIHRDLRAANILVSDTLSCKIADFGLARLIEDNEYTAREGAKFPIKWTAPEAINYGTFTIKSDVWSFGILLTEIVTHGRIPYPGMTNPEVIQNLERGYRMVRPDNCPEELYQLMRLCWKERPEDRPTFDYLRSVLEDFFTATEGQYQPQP
How it was run: as §1

[7] = target: T7, ErbB4 (Homo sapiens, UniProt Q15303); experiment: Kinase inhibition assay (33P transfer), ErbB4; settings: read-out: ErbB4-1
T7 construct: Kinases are expressed as either kinase domains or full length constructs; made in house

[8] = target: T8, c-Met (Homo sapiens, UniProt P08581); experiment: Kinase inhibition assay (33P transfer), c-Met; settings: Table 2, kinase inhibition class; read-out: Met-1
T8 construct: Kinases are expressed as either kinase domains or full length constructs; made in house
T8 sequence (P08581 25-1390): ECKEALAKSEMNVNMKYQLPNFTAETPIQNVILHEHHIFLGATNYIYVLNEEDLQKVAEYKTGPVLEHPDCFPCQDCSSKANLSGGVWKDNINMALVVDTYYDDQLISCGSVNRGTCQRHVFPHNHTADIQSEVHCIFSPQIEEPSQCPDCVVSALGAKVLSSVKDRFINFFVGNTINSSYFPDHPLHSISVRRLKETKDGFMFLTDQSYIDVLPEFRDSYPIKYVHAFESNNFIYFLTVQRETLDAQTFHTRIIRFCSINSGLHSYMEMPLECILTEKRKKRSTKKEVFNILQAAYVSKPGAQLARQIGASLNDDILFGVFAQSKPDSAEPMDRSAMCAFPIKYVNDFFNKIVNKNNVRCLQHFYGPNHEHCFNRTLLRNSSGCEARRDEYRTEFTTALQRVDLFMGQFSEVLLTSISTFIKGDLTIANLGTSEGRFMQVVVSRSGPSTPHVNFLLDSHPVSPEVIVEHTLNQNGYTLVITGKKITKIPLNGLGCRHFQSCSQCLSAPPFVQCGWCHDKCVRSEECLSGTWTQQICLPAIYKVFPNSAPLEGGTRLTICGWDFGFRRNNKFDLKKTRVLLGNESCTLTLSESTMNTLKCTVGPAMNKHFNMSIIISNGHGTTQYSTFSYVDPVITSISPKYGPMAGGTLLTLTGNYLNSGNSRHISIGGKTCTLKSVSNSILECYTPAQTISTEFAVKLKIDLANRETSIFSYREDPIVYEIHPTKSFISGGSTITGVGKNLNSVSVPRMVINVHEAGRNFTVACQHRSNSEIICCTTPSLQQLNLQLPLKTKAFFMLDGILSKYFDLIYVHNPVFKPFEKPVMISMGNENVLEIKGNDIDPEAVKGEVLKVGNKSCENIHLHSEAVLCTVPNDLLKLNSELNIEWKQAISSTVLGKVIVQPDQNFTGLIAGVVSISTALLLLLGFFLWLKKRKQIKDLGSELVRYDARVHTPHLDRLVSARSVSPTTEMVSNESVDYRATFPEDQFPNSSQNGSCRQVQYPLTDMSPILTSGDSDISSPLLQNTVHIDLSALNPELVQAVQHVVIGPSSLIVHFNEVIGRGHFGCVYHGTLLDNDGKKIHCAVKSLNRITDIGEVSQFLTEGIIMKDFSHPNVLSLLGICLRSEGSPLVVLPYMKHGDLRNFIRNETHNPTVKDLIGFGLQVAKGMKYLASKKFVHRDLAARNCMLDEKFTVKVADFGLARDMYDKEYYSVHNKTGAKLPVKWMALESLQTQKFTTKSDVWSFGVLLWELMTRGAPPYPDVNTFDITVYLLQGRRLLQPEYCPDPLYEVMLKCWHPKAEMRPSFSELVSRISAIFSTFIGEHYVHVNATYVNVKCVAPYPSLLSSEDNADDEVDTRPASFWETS
How it was run: as §2

[9] = target: T9, EPHB4 (Homo sapiens, UniProt P54760); experiment: Kinase inhibition assay (33P transfer), EPHB4; settings: read-out: EPHB4-1
T9 construct: Kinases are expressed as either kinase domains or full length constructs; made in house
T9 sequence (P54760 16-987): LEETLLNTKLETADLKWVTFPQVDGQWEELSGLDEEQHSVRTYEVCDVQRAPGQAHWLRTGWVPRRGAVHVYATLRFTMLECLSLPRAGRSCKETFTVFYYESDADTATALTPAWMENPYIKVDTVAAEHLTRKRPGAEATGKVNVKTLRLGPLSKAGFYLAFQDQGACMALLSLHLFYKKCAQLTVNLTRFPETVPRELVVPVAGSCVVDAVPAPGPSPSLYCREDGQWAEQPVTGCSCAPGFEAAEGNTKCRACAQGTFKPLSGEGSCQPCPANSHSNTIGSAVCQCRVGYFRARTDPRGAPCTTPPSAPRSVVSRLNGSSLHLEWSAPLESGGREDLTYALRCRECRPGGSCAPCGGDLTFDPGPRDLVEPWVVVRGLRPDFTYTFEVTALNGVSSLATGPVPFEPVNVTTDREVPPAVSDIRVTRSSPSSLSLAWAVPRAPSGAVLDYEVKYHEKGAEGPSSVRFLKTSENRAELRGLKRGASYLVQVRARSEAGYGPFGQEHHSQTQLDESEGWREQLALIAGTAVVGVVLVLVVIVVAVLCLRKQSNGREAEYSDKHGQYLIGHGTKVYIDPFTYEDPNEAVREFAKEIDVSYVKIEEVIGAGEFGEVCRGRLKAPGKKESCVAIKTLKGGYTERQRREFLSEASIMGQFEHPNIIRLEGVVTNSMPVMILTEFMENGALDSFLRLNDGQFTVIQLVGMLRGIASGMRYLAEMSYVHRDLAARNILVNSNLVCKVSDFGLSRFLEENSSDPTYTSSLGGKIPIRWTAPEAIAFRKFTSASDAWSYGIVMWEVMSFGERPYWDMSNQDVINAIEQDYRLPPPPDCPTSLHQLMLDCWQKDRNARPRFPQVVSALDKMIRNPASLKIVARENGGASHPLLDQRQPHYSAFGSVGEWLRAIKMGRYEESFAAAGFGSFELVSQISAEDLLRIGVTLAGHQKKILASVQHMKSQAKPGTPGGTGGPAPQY

[10] = target: T10, IGFR-1 (Homo sapiens, UniProt P08069); experiment: Kinase inhibition assay (33P transfer), IGFR-1; settings: Table 2, kinase inhibition class
T10 construct: Kinases are expressed as either kinase domains or full length constructs; made in house
T10 sequence (P08069 31-1367): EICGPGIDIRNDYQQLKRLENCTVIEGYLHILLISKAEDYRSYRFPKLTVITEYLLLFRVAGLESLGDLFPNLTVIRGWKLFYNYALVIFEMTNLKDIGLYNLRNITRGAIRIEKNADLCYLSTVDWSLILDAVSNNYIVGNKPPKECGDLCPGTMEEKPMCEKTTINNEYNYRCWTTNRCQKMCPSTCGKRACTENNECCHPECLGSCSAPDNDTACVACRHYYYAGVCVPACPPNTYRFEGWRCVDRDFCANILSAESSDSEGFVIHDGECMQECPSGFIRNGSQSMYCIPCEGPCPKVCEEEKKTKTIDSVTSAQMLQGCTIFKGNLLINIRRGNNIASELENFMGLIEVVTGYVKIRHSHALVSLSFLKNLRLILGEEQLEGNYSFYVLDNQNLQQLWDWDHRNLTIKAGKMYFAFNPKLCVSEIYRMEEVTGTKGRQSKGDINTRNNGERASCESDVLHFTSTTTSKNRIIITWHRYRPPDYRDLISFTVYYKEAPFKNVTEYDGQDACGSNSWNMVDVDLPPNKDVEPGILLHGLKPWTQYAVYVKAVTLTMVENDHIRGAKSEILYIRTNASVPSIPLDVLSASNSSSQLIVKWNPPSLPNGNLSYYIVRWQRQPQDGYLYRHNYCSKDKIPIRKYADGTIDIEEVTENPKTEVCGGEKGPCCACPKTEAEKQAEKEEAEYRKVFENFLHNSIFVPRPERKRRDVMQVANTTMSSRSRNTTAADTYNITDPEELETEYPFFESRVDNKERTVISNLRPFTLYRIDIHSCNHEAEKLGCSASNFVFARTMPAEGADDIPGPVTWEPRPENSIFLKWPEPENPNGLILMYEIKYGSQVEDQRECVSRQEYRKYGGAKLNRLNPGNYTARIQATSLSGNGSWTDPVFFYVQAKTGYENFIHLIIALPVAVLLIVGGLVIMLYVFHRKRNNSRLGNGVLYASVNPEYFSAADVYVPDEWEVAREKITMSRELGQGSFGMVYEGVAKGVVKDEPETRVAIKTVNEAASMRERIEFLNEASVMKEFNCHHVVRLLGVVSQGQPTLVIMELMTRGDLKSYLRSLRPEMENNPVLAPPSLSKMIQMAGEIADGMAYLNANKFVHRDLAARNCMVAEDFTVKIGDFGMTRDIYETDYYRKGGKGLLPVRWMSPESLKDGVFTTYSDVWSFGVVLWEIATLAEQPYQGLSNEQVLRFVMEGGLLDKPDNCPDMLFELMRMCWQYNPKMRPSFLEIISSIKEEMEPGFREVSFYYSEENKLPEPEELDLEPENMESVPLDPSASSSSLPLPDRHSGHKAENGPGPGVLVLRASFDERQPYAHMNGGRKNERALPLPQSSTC

[11] = target: T11, Itk (Homo sapiens, UniProt Q08881); experiment: Kinase inhibition assay (33P transfer), Itk; settings: Table 3; read-out: Itk-1
T11 construct: Kinases are expressed as either kinase domains or full length constructs; made in house
T11 sequence (Q08881 1-620): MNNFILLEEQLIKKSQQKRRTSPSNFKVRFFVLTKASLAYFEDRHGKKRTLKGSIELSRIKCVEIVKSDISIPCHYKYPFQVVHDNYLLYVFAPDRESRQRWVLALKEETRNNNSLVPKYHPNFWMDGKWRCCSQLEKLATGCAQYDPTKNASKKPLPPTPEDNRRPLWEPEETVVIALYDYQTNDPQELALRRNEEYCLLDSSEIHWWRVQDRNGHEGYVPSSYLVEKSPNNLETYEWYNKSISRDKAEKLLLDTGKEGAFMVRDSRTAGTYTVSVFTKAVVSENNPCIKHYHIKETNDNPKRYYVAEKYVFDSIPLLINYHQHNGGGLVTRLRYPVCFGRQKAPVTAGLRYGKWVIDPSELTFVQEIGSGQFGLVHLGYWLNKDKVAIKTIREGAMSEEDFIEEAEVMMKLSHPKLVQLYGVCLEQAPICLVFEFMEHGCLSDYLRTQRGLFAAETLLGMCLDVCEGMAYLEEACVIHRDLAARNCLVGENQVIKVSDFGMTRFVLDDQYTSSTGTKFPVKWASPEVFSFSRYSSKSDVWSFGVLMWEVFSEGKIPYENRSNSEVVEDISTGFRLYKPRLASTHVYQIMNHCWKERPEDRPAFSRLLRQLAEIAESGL
How it was run: as §2

T1 sequence (Q9Y243 whole entry, the tested form may be a part): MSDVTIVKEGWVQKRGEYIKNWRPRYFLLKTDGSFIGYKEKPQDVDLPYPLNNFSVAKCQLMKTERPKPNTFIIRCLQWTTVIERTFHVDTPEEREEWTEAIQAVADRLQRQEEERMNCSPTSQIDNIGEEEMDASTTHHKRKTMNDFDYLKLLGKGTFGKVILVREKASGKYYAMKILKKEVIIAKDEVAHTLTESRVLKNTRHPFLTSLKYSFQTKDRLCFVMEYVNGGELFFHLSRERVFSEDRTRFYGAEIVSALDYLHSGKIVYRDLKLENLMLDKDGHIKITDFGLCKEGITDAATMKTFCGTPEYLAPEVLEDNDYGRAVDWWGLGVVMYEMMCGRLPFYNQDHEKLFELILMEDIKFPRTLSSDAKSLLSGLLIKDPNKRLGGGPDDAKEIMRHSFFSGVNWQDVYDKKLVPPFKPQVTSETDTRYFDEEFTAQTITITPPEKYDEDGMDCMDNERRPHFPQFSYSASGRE

Compound | IC50 [1] | IC50 [2] | IC50 [3] | IC50 [4] | IC50 [5] | IC50 [6] | IC50 [7] | IC50 [8] | IC50 [9] | IC50 [10] | IC50 [11]
COc1cc(Nc2ncnc(Nc3cccc(OC(F)(F)F)c3)n2)cc(OC)c1OC [Compound 250] | > 10.3 µM | 5.49 to 8 µM | > 10.3 µM | < 0.915 µM | > 10.3 µM | 0.915 to 5.49 µM | 0.915 to 5.49 µM | > 10.3 µM | > 10.3 µM | < 0.915 µM | > 10.3 µM
COc1cc(Nc2ncnc(Nc3ccc(C)c([N+](=O)[O-])c3)n2)cc(OC)c1OC [Compound 934] | > 10.9 µM | 0.97 to 5.82 µM | > 10.9 µM | 0.97 to 5.82 µM | – | > 10.9 µM | > 10.9 µM | > 10.9 µM | 0.97 to 5.82 µM | < 0.97 µM | > 10.9 µM
COc1ccc(Nc2ncnc(Nc3ccccc3C)n2)cc1OC [Compound 111] | > 13.3 µM | 1.19 to 7.11 µM | > 13.3 µM | < 1.19 µM | > 13.3 µM | 1.19 to 7.11 µM | > 13.3 µM | > 13.3 µM | > 13.3 µM | < 1.19 µM | > 13.3 µM
COc1ccc(Nc2ncnc(Nc3cccc(Br)c3)n2)cc1OC [Compound 118] | > 11.2 µM | > 11.2 µM | > 11.2 µM | < 0.994 µM | > 11.2 µM | 8.7 to 11.2 µM | > 11.2 µM | > 11.2 µM | 0.994 to 5.97 µM | 0.994 to 5.97 µM | 0.994 to 5.97 µM
COc1cc(Nc2ncnc(N(CC(=O)OC(C)(C)C)c3ccc(Cl)cc3)n2)cc(OC)c1OC [Compound 291] | > 8.96 µM | 4.78 to 6.97 µM | > 8.96 µM | 0.797 to 4.78 µM | 6.97 to 8.96 µM | 4.78 to 6.97 µM | – | > 8.96 µM | 6.97 to 8.96 µM | > 8.96 µM | > 8.96 µM

Results, then the molecule that gave them:

IC50 [1] | IC50 [2] | IC50 [3] | IC50 [4] | IC50 [5] | IC50 [6] | IC50 [7] | IC50 [8] | IC50 [9] | IC50 [10] | IC50 [11] | Compound
8.15 to 10.5 µM | 0.931 to 5.59 µM | 5.59 to 8.15 µM | 0.931 to 5.59 µM | 5.59 to 8.15 µM | > 10.5 µM | > 10.5 µM | 8.15 to 10.5 µM | 0.931 to 5.59 µM | > 10.5 µM | > 10.5 µM | COc1ccc(Nc2ncnc(Nc3ccc(OCc4ccccc4)cc3)n2)cc1OC [Compound 157]
1.04 to 6.23 µM | 6.23 to 9.08 µM | 6.23 to 9.08 µM | < 1.04 µM | 6.23 to 9.08 µM | > 11.7 µM | > 11.7 µM | 1.04 to 6.23 µM | 6.23 to 9.08 µM | 9.08 to 11.7 µM | > 11.7 µM | Oc1cccc(Nc2ncnc(Nc3ccc(OCc4ccccc4)cc3)n2)c1 [Compound 159]
